Activity calls are given as the source filed them.

Holding throughout (format): functional
Test [1] addresses Protein kinase C theta type (Homo sapiens, UniProt Q04759). In words: Navigating the Kinome. Panel member name: PRKCQ.
The target in test [2] is Tyrosine-protein kinase Lck (Homo sapiens, UniProt P06239).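 Note: lck was assayed as one member of a kinase panel.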
Test [3] has as its target Homeodomain-interacting protein kinase 2 (Homo sapiens, UniProt Q9H2X6).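 Note: measured within a kinome-wide kinase profiling panel, HIPK2 being one panel member.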
Test [4] concerns the target Dual specificity tyrosine-phosphorylation-regulated kinase 1B (Homo sapiens, UniProt Q9Y463). In words: Navigating the Kinome. Panel member name: DYRK1B.
In test [5] the target is Focal adhesion kinase 1 (Homo sapiens, UniProt Q05397).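 Note: measured as one member of a kinome panel.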
Test [6] deals with Platelet-derived growth factor receptor alpha (Homo sapiens, UniProt P16234). In words: Navigating the Kinome. Panel member name: PDGFRA.
In test [7] the target is Leucine-rich repeat serine/threonine-protein kinase 2 (Homo sapiens, UniProt Q5S007).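 Note: value from a broad kinome-wide panel profiling study in which LRRK2 was one of the kinases tested.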
Test [8] concerns the target Cyclin-dependent kinase 8 (Homo sapiens, UniProt P49336). In words: Navigating the Kinome. Panel member name: CDK8.
Test [9] addresses Cyclin-dependent kinase 7 (Homo sapiens, UniProt P50613).
Test [10] has as its target Cyclin-dependent kinase 9 (Homo sapiens, UniProt P50750).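 Note: value from the CDK9 entry of a kinome-spanning kinase panel.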
Test [11] concerns the target Macrophage-stimulating protein receptor (Homo sapiens, UniProt Q04912). In words: Navigating the Kinome. Panel member name: MST1R.
For test [12], the target named is Inhibitor of nuclear factor kappa-B kinase subunit epsilon (Homo sapiens, UniProt Q14164). In words: Navigating the Kinome. Panel member name: IKBKE.
Test [13] has as its target Serine/threonine-protein kinase PLK3 (Homo sapiens, UniProt Q9H4B4).
Test [14] addresses RAC-gamma serine/threonine-protein kinase (Homo sapiens, UniProt Q9Y243).
The target in test [15] is Serine/threonine-protein kinase PLK4 (Homo sapiens, UniProt O00444).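 Note: PLK4 measured as one member of a kinome-wide kinase profiling panel.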
For test [16], the target named is Casein kinase II subunit alpha (Homo sapiens, UniProt P68400).
Test [17] concerns the target LIM domain kinase 1 (Homo sapiens, UniProt P53667). In words: Navigating the Kinome. Panel member name: LIMK1.
The target in test [18] is Insulin receptor (Homo sapiens, UniProt P06213).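 Note: insulin receptor kinase tested as one member of a kinome-wide kinase panel.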
Test [19] addresses Mitogen-activated protein kinase 13 (Homo sapiens, UniProt O15264).
In test [20] the target is Non-receptor tyrosine-protein kinase TYK2 (Homo sapiens, UniProt P29597).
For test [21], the target named is Protein kinase C gamma type (Homo sapiens, UniProt P05129).
The target of test [22] is Hepatocyte growth factor receptor (Homo sapiens, UniProt P08581).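 Note: kinase panel profiling across the kinome, with MET as the panel member.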
The target of test [23] is Ephrin type-A receptor 2 (Homo sapiens, UniProt P29317).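 Note: EPHA2 tested as one member of a kinome-wide kinase panel.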
Test [24] concerns the target Interleukin-1 receptor-associated kinase 4 (Homo sapiens, UniProt Q9NWZ3).
Test [25] has as its target Cyclin-dependent kinase 1 (Homo sapiens, UniProt P06493).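 Note: Kinome-wide panel profiling, with the target listed as panel member CDC2.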
For test [26], the target named is Fibroblast growth factor receptor 3 (Homo sapiens, UniProt P22607).
The target in test [27] is Serine/threonine-protein kinase PLK1 (Homo sapiens, UniProt P53350).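 Note: PLK1 measured as one member of a kinome-wide profiling panel.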
Test [28] deals with Receptor tyrosine-protein kinase erbB-4 (Homo sapiens, UniProt Q15303).
The target in test [29] is Serine/threonine-protein kinase MRCK alpha (Homo sapiens, UniProt Q5VT25).
Test [30] deals with Inhibitor of nuclear factor kappa-B kinase subunit beta (Homo sapiens, UniProt O14920).

Sequence of Cyclin-dependent kinase 8 (P49336 whole entry): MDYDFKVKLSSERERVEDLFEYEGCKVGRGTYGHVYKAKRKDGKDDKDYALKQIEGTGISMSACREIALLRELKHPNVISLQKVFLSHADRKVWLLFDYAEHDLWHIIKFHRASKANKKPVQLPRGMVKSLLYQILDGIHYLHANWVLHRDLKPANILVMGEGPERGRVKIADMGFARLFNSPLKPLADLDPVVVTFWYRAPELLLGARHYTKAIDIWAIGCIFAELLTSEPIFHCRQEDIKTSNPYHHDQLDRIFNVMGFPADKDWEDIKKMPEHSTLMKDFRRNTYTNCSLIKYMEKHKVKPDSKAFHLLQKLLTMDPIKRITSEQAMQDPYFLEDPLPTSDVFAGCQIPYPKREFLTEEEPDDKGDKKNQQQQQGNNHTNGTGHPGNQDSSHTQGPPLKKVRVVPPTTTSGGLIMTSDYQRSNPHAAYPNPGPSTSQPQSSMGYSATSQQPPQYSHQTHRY
Sequence of Fibroblast growth factor receptor 3 (P22607 whole entry): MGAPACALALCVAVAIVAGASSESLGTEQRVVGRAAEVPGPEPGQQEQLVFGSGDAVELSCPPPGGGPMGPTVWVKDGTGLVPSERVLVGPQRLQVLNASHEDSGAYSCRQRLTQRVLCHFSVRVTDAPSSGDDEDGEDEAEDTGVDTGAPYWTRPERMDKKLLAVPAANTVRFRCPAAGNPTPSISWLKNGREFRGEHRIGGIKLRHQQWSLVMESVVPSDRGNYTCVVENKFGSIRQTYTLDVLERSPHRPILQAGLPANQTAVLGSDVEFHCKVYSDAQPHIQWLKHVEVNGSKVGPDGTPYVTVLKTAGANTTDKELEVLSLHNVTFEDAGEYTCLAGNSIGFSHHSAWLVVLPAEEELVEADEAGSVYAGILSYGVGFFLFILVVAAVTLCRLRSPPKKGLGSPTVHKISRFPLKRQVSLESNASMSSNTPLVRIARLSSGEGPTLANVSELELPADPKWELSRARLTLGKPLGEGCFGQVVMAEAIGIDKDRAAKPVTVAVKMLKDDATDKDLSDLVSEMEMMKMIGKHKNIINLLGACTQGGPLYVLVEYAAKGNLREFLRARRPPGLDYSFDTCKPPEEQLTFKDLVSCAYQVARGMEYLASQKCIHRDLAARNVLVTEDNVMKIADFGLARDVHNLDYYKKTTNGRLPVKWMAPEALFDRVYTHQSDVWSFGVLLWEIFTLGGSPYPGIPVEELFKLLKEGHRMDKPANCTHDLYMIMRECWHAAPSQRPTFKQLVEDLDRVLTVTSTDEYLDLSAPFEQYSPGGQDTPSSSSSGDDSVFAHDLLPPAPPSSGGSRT
Sequence of Platelet-derived growth factor receptor alpha (P16234 whole entry): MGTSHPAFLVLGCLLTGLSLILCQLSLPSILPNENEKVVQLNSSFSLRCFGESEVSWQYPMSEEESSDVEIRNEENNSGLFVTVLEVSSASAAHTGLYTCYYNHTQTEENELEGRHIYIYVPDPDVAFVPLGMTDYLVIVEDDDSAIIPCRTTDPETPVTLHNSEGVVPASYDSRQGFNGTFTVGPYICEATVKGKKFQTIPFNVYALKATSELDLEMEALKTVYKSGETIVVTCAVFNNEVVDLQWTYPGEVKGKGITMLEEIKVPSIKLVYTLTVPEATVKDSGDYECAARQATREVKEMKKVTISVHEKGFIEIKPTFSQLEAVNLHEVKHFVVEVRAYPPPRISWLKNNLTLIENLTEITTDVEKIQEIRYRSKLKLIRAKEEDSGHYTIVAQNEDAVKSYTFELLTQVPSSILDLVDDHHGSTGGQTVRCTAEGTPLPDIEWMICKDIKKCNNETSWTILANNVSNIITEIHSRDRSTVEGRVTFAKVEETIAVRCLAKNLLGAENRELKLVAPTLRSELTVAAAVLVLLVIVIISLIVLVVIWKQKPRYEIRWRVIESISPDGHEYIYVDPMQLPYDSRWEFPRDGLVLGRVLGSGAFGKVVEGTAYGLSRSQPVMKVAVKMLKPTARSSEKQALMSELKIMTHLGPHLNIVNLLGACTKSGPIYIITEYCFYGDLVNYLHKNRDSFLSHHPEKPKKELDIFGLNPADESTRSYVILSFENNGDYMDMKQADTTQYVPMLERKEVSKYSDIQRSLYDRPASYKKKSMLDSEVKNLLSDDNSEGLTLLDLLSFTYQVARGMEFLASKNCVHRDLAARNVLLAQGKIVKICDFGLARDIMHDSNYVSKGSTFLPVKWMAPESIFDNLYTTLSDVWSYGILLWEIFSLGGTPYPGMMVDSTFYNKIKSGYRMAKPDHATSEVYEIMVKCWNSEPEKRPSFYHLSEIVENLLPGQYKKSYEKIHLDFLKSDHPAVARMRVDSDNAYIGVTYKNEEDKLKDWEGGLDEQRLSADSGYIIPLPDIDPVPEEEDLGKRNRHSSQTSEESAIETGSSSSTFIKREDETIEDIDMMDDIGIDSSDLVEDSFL
Sequence of LIM domain kinase 1 (P53667 whole entry, the tested form may be a part): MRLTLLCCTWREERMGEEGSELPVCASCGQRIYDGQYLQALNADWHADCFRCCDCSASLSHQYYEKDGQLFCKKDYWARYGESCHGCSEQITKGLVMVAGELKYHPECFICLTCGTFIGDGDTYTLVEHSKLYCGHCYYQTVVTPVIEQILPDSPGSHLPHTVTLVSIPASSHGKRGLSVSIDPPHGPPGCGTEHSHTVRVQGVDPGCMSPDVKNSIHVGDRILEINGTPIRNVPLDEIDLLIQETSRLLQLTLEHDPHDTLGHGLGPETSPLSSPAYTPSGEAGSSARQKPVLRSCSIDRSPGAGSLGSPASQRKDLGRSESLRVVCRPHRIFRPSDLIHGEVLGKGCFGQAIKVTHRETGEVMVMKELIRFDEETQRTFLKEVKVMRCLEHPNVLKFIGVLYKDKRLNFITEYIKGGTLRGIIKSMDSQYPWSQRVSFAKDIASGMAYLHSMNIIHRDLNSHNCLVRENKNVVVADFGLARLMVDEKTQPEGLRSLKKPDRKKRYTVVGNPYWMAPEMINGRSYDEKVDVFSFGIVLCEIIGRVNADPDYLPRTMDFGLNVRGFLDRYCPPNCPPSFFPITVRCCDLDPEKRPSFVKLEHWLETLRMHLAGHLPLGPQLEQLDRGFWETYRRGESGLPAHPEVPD
Sequence of Receptor tyrosine-protein kinase erbB-4 (Q15303 whole entry): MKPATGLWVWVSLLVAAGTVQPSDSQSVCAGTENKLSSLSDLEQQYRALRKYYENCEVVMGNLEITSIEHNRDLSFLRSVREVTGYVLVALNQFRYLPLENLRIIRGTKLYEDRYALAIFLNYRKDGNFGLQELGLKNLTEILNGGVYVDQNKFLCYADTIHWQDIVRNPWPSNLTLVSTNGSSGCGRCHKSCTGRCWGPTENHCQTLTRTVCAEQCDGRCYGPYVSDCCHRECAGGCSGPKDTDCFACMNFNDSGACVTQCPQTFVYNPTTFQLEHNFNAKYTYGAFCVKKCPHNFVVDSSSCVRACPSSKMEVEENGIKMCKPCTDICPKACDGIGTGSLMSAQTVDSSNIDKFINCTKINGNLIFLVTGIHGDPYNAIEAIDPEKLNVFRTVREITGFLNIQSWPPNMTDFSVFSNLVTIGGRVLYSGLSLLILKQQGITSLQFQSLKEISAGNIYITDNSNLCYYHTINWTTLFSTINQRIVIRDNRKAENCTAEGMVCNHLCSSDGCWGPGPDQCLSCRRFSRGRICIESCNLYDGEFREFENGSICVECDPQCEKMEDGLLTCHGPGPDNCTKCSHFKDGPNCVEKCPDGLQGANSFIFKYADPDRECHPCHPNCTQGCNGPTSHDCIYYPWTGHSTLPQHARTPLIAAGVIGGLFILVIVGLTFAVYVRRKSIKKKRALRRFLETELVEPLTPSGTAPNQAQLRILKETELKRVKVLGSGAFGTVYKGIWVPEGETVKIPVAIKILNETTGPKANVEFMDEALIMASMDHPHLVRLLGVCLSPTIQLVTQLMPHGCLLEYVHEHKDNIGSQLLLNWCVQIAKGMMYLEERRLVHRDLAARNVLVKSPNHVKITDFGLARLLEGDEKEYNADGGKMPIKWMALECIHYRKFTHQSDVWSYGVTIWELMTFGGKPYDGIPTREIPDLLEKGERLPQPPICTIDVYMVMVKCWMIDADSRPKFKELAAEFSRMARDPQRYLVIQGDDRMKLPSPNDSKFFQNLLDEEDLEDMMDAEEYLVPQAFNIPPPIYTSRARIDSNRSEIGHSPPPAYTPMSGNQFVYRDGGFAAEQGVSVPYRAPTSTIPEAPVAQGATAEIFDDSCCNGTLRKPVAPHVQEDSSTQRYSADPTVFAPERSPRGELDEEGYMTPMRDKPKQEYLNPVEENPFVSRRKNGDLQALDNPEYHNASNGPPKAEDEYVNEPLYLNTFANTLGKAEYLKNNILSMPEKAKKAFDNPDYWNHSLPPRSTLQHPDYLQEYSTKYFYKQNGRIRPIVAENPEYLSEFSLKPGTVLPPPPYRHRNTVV
Sequence of Serine/threonine-protein kinase PLK1 (P53350 whole entry): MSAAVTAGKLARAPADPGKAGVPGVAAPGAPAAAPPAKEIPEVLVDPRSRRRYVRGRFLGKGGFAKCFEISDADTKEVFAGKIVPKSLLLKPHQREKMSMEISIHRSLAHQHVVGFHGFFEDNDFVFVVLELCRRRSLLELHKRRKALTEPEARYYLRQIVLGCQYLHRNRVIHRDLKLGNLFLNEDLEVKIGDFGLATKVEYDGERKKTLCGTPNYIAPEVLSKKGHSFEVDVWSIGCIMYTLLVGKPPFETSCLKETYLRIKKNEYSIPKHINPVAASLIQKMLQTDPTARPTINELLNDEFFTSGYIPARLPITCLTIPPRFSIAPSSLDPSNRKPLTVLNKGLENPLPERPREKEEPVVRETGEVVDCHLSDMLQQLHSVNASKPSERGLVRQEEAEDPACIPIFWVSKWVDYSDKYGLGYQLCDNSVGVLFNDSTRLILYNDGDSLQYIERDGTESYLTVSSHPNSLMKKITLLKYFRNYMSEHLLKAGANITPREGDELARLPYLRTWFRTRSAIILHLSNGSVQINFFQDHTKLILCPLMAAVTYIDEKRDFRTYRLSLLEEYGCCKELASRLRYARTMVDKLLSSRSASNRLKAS

One may read the Ki as a measure of affinity in units of concentration, obtained from inhibition or displacement. In the case of `CN(C)C1CCC(Nc2nc(Cl)cc(-c3c[nH]c4ncccc34)n2)CC1` (stereo not given), the inhibition constant (Ki) is 7.94 nM (active) in test [1]; 5010 nM (active) in [2]; 63.1 nM (active) in test [3]; 25.1 nM (active) in [4]; > 6310 nM (inactive) in [5]; > 2510 nM (inactive) in test [6]. Moreover, the Ki in test [7] was 15.8 nM (active); in test [8], 15.8 nM (active); in [9] it was 100 nM (active); in test [10], 5.01 nM (active); in [11], 79.4 nM (active); in [12], 2510 nM (active).

For the compound `NC(COc1cncc(-c2cc3ccncc3s2)c1)Cc1c[nH]c2ccccc12` (stereo not given), the inhibitory constant (Ki) in test [13] was 794 nM (active); in test [14], 25.1 nM (active); in test [15], 631 nM (active); in [16], 398 nM (active); in test [17], 794 nM (active); in [18], > 5010 nM (inactive). Further, the inhibition constant Ki in test [19] is 7940 nM (active); in [20], > 2000 nM (inactive); in [21], 398 nM (active); in test [22], > 3160 nM (inactive); in test [23], > 3160 nM (inactive); in test [24], 1580 nM (active). Also, the Ki was 158 nM (active) in [25]; > 2000 nM (inactive) in [26]; > 7940 nM (inactive) in [27]; > 3980 nM (inactive) in test [28]; 200 nM (active) in [29]; > 3160 nM (inactive) in test [30].

(Values after ChEMBL document CHEMBL1201862, “PubChem BioAssay data set” (2004).)
